{"source": "ChEMBL document CHEMBL1128917", "about": "“1-O-, 2-O- and 3-O--glycosyl-sn-glycerols: Structure - anti-tumor-promoting activity relationship” (1996)", "type_in_all_cases": "functional, Homo sapiens", "key": {"Raji [1]": {"system": "Raji", "assay": "Tested in vitro for inhibitory activity against TPA induced Epstein-Barr virus antigen activation in Raji cells (100 mol) for positive control"}, "Raji [2]": {"system": "Raji", "assay": "Tested in vitro for inhibitory activity against TPA induced Epstein-Barr virus antigen activation in Raji cells (1000 mol) for positive control"}, "Raji [3]": {"system": "Raji", "assay": "Tested in vitro for inhibitory activity against TPA induced Epstein-Barr virus antigen activation in Raji cells (10 mol) for positive control"}, "Raji [4]": {"system": "Raji", "assay": "Tested in vitro for inhibitory activity against TPA induced Epstein-Barr virus antigen activation in Raji cells (1000 mol) for viability"}, "Raji [5]": {"system": "Raji", "assay": "Tested in vitro for inhibitory activity against TPA induced Epstein-Barr virus antigen activation in Raji cells (500 mol) for positive control"}}, "data": [{"smiles": "CO[C@@H]1O[C@H](CO)[C@H](O)[C@H](O)[C@H]1O", "values": [{"measurement": "EBV antigen activation, % of positive control", "setting": "Raji [1]", "result": 76.5, "unit": "%"}, {"measurement": "EBV antigen activation, % of positive control", "setting": "Raji [2]", "result": 20.3, "unit": "%"}, {"measurement": "EBV antigen activation, % of positive control", "setting": "Raji [3]", "result": 93.7, "unit": "%"}, {"measurement": "Viability", "setting": "Raji [4]", "result": 80, "unit": "%"}, {"measurement": "EBV-EA activation (% of positive control)", "setting": "Raji [5]", "result": 43.9, "unit": "%"}]}, {"smiles": "CO[C@@H]1O[C@H](CO)C(O)C(O)[C@H]1O", "note": "(single isomer, unassigned)", "values": [{"measurement": "EBV antigen activation, % of positive control", "setting": "Raji [1]", "result": 70.7, "unit": "%"}, {"measurement": "EBV antigen activation, % of positive control", "setting": "Raji [2]", "result": 22.8, "unit": "%"}, {"measurement": "EBV antigen activation, % of positive control", "setting": "Raji [3]", "result": 100, "unit": "%"}, {"measurement": "Viability", "setting": "Raji [4]", "result": 70, "unit": "%"}, {"measurement": "EBV-EA activation (% of positive control)", "setting": "Raji [5]", "result": 54.1, "unit": "%"}]}, {"smiles": "OCC(O)CO[C@@H]1O[C@@H](CO)[C@@H](O)[C@H](O)[C@@H]1O", "note": "(stereo in doubt; form 1)", "values": [{"measurement": "EBV antigen activation, % of positive control", "setting": "Raji [1]", "result": 62.4, "unit": "%"}, {"measurement": "EBV antigen activation, % of positive control", "setting": "Raji [2]", "result": 0, "unit": "%"}, {"measurement": "EBV antigen activation, % of positive control", "setting": "Raji [3]", "result": 82.5, "unit": "%"}, {"measurement": "Viability", "setting": "Raji [4]", "result": 70, "unit": "%"}, {"measurement": "EBV-EA activation (% of positive control)", "setting": "Raji [5]", "result": 20.7, "unit": "%"}]}, {"smiles": "CC(=O)OCC(CO)O[C@@H]1O[C@@H](CO)[C@@H](O)[C@H](O)[C@@H]1O", "note": "(stereo in doubt; form 1)", "values": [{"measurement": "EBV antigen activation, % of positive control", "setting": "Raji [1]", "result": 71.5, "unit": "%"}, {"measurement": "EBV antigen activation, % of positive control", "setting": "Raji [3]", "result": 94.7, "unit": "%"}, {"measurement": "EBV-EA activation (% of positive control)", "setting": "Raji [5]", "result": 32.9, "unit": "%"}]}, {"smiles": "OCC(CO)O[C@@H]1O[C@@H](CO)[C@H](O)[C@H](O)[C@@H]1O", "note": "(stereo in doubt; form 1)", "values": [{"measurement": "EBV antigen activation, % of positive control", "setting": "Raji [1]", "result": 81, "unit": "%"}, {"measurement": "Viability", "setting": "Raji [4]", "result": 70, "unit": "%"}, {"measurement": "EBV-EA activation (% of positive control)", "setting": "Raji [5]", "result": 45.8, "unit": "%"}]}, {"smiles": "OCC(O)CO[C@@H]1O[C@@H](CO)[C@H](O)[C@H](O)[C@@H]1O", "note": "(stereo in doubt; form 1)", "values": [{"measurement": "EBV antigen activation, % of positive control", "setting": "Raji [1]", "result": 58.2, "unit": "%"}, {"measurement": "EBV antigen activation, % of positive control", "setting": "Raji [3]", "result": 79.1, "unit": "%"}, {"measurement": "EBV-EA activation (% of positive control)", "setting": "Raji [5]", "result": 16.5, "unit": "%"}]}, {"smiles": "OCC(O)CO[C@@H]1O[C@@H](CO)[C@@H](O)[C@H](O)[C@@H]1O", "note": "(stereo in doubt; form 2)", "values": [{"measurement": "EBV antigen activation, % of positive control", "setting": "Raji [1]", "result": 68.9, "unit": "%"}, {"measurement": "EBV antigen activation, % of positive control", "setting": "Raji [3]", "result": 90.4, "unit": "%"}, {"measurement": "EBV-EA activation (% of positive control)", "setting": "Raji [5]", "result": 27.4, "unit": "%"}]}, {"smiles": "CC(=O)OCC(CO)O[C@@H]1O[C@@H](CO)[C@@H](O)[C@H](O)[C@@H]1O", "note": "(stereo in doubt; form 2)", "values": [{"measurement": "EBV antigen activation, % of positive control", "setting": "Raji [1]", "result": 77.3, "unit": "%"}, {"measurement": "EBV antigen activation, % of positive control", "setting": "Raji [2]", "result": 0, "unit": "%"}, {"measurement": "EBV antigen activation, % of positive control", "setting": "Raji [3]", "result": 100, "unit": "%"}, {"measurement": "Viability", "setting": "Raji [4]", "result": 70, "unit": "%"}, {"measurement": "EBV-EA activation (% of positive control)", "setting": "Raji [5]", "result": 36.6, "unit": "%"}]}, {"smiles": "OCC(CO)O[C@@H]1O[C@@H](CO)[C@H](O)[C@H](O)[C@@H]1O", "note": "(stereo in doubt; form 2)", "values": [{"measurement": "EBV antigen activation, % of positive control", "setting": "Raji [1]", "result": 88.1, "unit": "%"}, {"measurement": "EBV antigen activation, % of positive control", "setting": "Raji [2]", "result": 0, "unit": "%"}, {"measurement": "EBV antigen activation, % of positive control", "setting": "Raji [3]", "result": 100, "unit": "%"}, {"measurement": "Viability", "setting": "Raji [4]", "result": 80, "unit": "%"}, {"measurement": "EBV-EA activation (% of positive control)", "setting": "Raji [5]", "result": 17.5, "unit": "%"}]}, {"smiles": "OCC(O)CO[C@@H]1O[C@@H](CO)[C@H](O)[C@H](O)[C@@H]1O", "note": "(stereo in doubt; form 2)", "values": [{"measurement": "EBV antigen activation, % of positive control", "setting": "Raji [1]", "result": 64.6, "unit": "%"}, {"measurement": "EBV antigen activation, % of positive control", "setting": "Raji [2]", "result": 0, "unit": "%"}, {"measurement": "EBV antigen activation, % of positive control", "setting": "Raji [3]", "result": 87.5, "unit": "%"}, {"measurement": "Viability", "setting": "Raji [4]", "result": 70, "unit": "%"}, {"measurement": "EBV-EA activation (% of positive control)", "setting": "Raji [5]", "result": 25.8, "unit": "%"}]}]}
